Measurements as given in ChEMBL document CHEMBL1201862, “PubChem BioAssay data set” (2004).
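In this assay, cells in 96-well plates receive the compound at five concentrations for 48 hours. Endpoints are linearly interpolated between the surrounding concentrations. GI50 marks 50% less growth.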 The source made the active and inactive calls. No stated cut-off is given here; in the data, active = GI50 up to about 1.1 µM and inactive = higher.

Columns and labels:
Experiment in all cases: NCI tumour cell line growth inhibition, 48 h
UACC-257 = system: UACC-257
SN12C = system: SN12C
U-251 = system: U-251
NCI/ADR-RES = system: NCI/ADR-RES
K562 = system: K562
SF-539 = system: SF-539
UO-31 = system: UO-31
NCI-H23 = system: NCI-H23
BT-549 = system: BT-549
OVCAR-3 = system: OVCAR-3
NCI-H460 = system: NCI-H460
HCC 2998 = system: HCC 2998
SNB-19 = system: SNB-19
MDA-MB-231 = system: MDA-MB-231
RPMI-8226 = system: RPMI-8226
SK-OV-3 = system: SK-OV-3
MCF7 = system: MCF7
ACHN = system: ACHN
CCRF-CEM = system: CCRF-CEM
HL-60 = system: HL-60
MDA-MB-435 = system: MDA-MB-435
RXF 393 = system: RXF 393
T47D = system: T47D
EKVX = system: EKVX
IGROV-1 = system: IGROV-1
SK-MEL-2 = system: SK-MEL-2
SF-295 = system: SF-295
SW-620 = system: SW-620
HCT-116 = system: HCT-116
SF-268 = system: SF-268
OVCAR-4 = system: OVCAR-4
OVCAR-5 = system: OVCAR-5
COLO 205 = system: COLO 205
NCI-H522 = system: NCI-H522
Hs-578T = system: Hs-578T
PC-3 = system: PC-3
786-0 = system: 786-0
UACC-62 = system: UACC-62
SK-MEL-5 = system: SK-MEL-5
SNB-75 = system: SNB-75
M14 = system: M14
A549 = system: A549
A498 = system: A498
NCI-H226 = system: NCI-H226
OVCAR-8 = system: OVCAR-8
HOP-92 = system: HOP-92
HCT-15 = system: HCT-15
HOP-62 = system: HOP-62
MDA-N = system: MDA-N
TK-10 = system: TK-10
SK-MEL-28 = system: SK-MEL-28
MOLT-4 = system: MOLT-4
HT-29 = system: HT-29
CAKI-1 = system: CAKI-1
LOX IMVI = system: LOX IMVI
KM12 = system: KM12
DU-145 = system: DU-145
Malme-3M = system: Malme-3M

Measured: GI50

O=C(OCC12CC3CC(CC(C3)C1)C2)c1ccc(NCc2cc(O)ccc2O)cc1
inactive: UACC-257 1.64 µM | SN12C 2.57 µM | NCI/ADR-RES 1.47 µM | NCI-H23 1.47 µM | NCI-H460 2.57 µM | HCC 2998 1.79 µM | SNB-19 4.33 µM | MDA-MB-231 4.06 µM | SK-OV-3 6.08 µM | ACHN 2.01 µM | MDA-MB-435 1.99 µM | RXF 393 1.29 µM | EKVX 2.7 µM | SK-MEL-2 2.5 µM | SF-295 3.76 µM | SW-620 3.02 µM | HCT-116 2.26 µM | SF-268 3.27 µM | OVCAR-5 2.1 µM | Hs-578T 2.14 µM | UACC-62 1.6 µM | SK-MEL-5 1.32 µM | SNB-75 1.81 µM | M14 1.96 µM | A549 2.67 µM | A498 3.72 µM | NCI-H226 1.77 µM | OVCAR-8 1.81 µM | HOP-92 3.66 µM | HOP-62 4.62 µM | MDA-N 2.81 µM | TK-10 1.99 µM | SK-MEL-28 1.54 µM | HT-29 1.47 µM | LOX IMVI 1.72 µM | KM12 1.24 µM | DU-145 3.54 µM
1.32 µM: HCT-15
active: U-251 1.02 µM | K562 0.431 µM | SF-539 0.544 µM | UO-31 0.671 µM | BT-549 0.331 µM | OVCAR-3 0.305 µM | RPMI-8226 0.199 µM | MCF7 1.08 µM | CCRF-CEM 0.0547 µM | HL-60 0.145 µM | T47D 0.473 µM | IGROV-1 0.131 µM | OVCAR-4 1.05 µM | COLO 205 0.681 µM | NCI-H522 0.0662 µM | PC-3 0.713 µM | 786-0 0.708 µM | MOLT-4 0.115 µM | CAKI-1 0.466 µM

NCCCNCCS
inactive: Malme-3M > 100 µM | NCI/ADR-RES > 100 µM | SF-539 > 100 µM | NCI-H23 > 100 µM | BT-549 > 100 µM | OVCAR-3 > 100 µM | NCI-H460 > 100 µM | MDA-MB-231 > 100 µM | MCF7 > 100 µM | ACHN > 100 µM | MDA-MB-435 65.5 µM | T47D > 100 µM | IGROV-1 > 100 µM | HCT-116 > 100 µM | NCI-H522 91.8 µM | Hs-578T > 100 µM | PC-3 > 100 µM | SNB-75 > 100 µM | A498 > 100 µM | NCI-H226 > 100 µM | HOP-62 > 100 µM | MDA-N > 100 µM | SK-MEL-28 > 100 µM | CAKI-1 51.8 µM | LOX IMVI > 100 µM | DU-145 > 100 µM
74.3 µM: HCT-15

C=C1N(C)c2ccc(S(=O)(=O)c3ccc4c(c3)C(C)(C)C(=C)N4C)cc2C1(C)C
59.7 µM: HCT-15
inactive: Malme-3M 19.5 µM | UACC-257 26.4 µM | SN12C 42.2 µM | U-251 31.5 µM | NCI/ADR-RES 59 µM | SF-539 > 100 µM | UO-31 51.6 µM | NCI-H23 27.4 µM | BT-549 26.1 µM | OVCAR-3 25.4 µM | NCI-H460 49.8 µM | HCC 2998 34.5 µM | SNB-19 39.2 µM | MDA-MB-231 33.6 µM | RPMI-8226 9.08 µM | SK-OV-3 > 100 µM | MCF7 29 µM | ACHN 77.8 µM | CCRF-CEM 50.1 µM | HL-60 27.3 µM | MDA-MB-435 30.8 µM | T47D 24.2 µM | EKVX 30.9 µM | IGROV-1 27.3 µM | SK-MEL-2 41.3 µM | SF-295 22.8 µM | SW-620 45 µM | HCT-116 34.5 µM | SF-268 36.6 µM | OVCAR-4 35.3 µM | OVCAR-5 83.9 µM | COLO 205 16.3 µM | NCI-H522 20.7 µM | Hs-578T 24.3 µM | PC-3 35.5 µM | 786-0 58.5 µM | UACC-62 29.1 µM | SK-MEL-5 17.5 µM | SNB-75 16.3 µM | M14 31.2 µM | A549 28.6 µM | A498 37.2 µM | NCI-H226 > 100 µM | OVCAR-8 27.1 µM | HOP-92 3.85 µM | HOP-62 56.1 µM | MDA-N 39 µM | TK-10 36.1 µM | SK-MEL-28 > 100 µM | MOLT-4 18 µM | HT-29 47 µM | CAKI-1 62.4 µM | KM12 45.5 µM | DU-145 60 µM

CC(C)C1=CC2=C(C(=O)C1=O)C13CCCC(C)(C)C1CC2OC3=O (centres undefined)
12.8 µM: HCT-15
inactive: UACC-257 23.9 µM | SN12C 21.4 µM | U-251 23 µM | NCI/ADR-RES 18.9 µM | K562 3.64 µM | SF-539 20.7 µM | UO-31 19.4 µM | NCI-H23 26.8 µM | BT-549 16.8 µM | OVCAR-3 16.7 µM | NCI-H460 26.2 µM | HCC 2998 21.3 µM | SNB-19 42.9 µM | MDA-MB-231 21.9 µM | RPMI-8226 8.18 µM | SK-OV-3 59.3 µM | MCF7 22.3 µM | ACHN 19.1 µM | CCRF-CEM 3.97 µM | HL-60 15.1 µM | MDA-MB-435 20.8 µM | T47D 20.4 µM | EKVX 16.2 µM | IGROV-1 17.3 µM | SK-MEL-2 21.7 µM | SF-295 37 µM | SW-620 14.5 µM | HCT-116 18.3 µM | SF-268 22 µM | OVCAR-4 18.6 µM | OVCAR-5 25.4 µM | COLO 205 17.2 µM | NCI-H522 11.3 µM | Hs-578T 34.4 µM | PC-3 24.2 µM | 786-0 17.9 µM | UACC-62 13.4 µM | SK-MEL-5 25.2 µM | SNB-75 25.7 µM | M14 24 µM | A549 43.5 µM | A498 27.2 µM | NCI-H226 18.6 µM | OVCAR-8 19.2 µM | HOP-92 19 µM | MDA-N 17.9 µM | TK-10 14.8 µM | SK-MEL-28 14.1 µM | MOLT-4 6.11 µM | HT-29 12.5 µM | CAKI-1 17.9 µM | LOX IMVI 20.1 µM | KM12 31.8 µM | DU-145 18.8 µM
